# Source: ChEMBL document CHEMBL1125081, “Stereospecific synthesis and antiviral properties of different enantiomerically pure carbocyclic 2'-deoxyribonucleoside analogues derived from common chiral pools: (+)-(1R,5S)- and (-)-(1S,5R)-2-oxabicyclo[3.3.0]oct-6-en-3-one” (1990)
# Columns and labels:
# Human alphaherpesvirus 2 = test: Evaluated for minimum inhibitory concentration against G,196, Lyons strains of Herpes simplex virus (HSV-2) in primary rabbit kidney cells; type: functional
# Human alphaherpesvirus 1 [1] = test: Evaluated for minimum inhibitory concentration against TK-B2006 strain of Herpes simplex virus (HSV-1) in primary rabbit kidney cells; type: functional
# [2] = test system: Vesicular stomatitis virus; test: Evaluated for minimum inhibitory concentration against Vesicular stomatitis virus (VSV) in primary rabbit kidney cells; type: functional
# [3] = test system: Human immunodeficiency virus 1; test: Evaluated for minimum inhibitory concentration (MIC) against MT-4 cells of human immunodeficiency virus type-1 (HIV-1); type: functional, MT4
# Vaccinia virus = test: Evaluated for minimum inhibitory concentration against Vaccinia virus (VV) in primary rabbit kidney cells; type: functional; conditions: Orthopoxvirus vaccinia
# HeLa = test: Evaluated for minimum inhibitory concentration against HeLa cells (human carcinoma) infected with VSV, Coxs, B4, polio-1 virus; type: functional
# Human alphaherpesvirus 1 [4] = test: Evaluated for minimum inhibitory concentration against KOS, F, McIntyre strains of Herpes simplex virus (HSV-1) in primary rabbit kidney cells; type: functional
# Vero = test: Evaluated for minimum inhibitory concentration against Vero cells (African green monkey) infected with PV-3, RV-1, SV, Coxs B4, SFV virus; type: functional; conditions: Chlorocebus sabaeus
# [5] = test system: Vesicular stomatitis virus; test: Evaluated for minimum inhibitory concentration (MIC) against Vesicular stomatitis virus (VSV); type: functional
Structure (SMILES),MIC (Human alphaherpesvirus 2) [µg/mL],MIC (Human alphaherpesvirus 1 [1]) [µg/mL],MIC [2] [µg/mL],MIC [3] [µg/mL],MIC (Vaccinia virus) [µg/mL],MIC (HeLa) [µg/mL],MIC (Human alphaherpesvirus 1 [4]) [µg/mL],MIC (Vero) [µg/mL],MIC [5] [µg/mL]
Cc1cn([C@@H]2C[C@H](CO)[C@H](O)C2)c(=O)[nH]c1=O,> 400,> 400,> 400,> 250,> 400,> 400,> 400,> 200,
Cc1cn([C@@H]2C[C@H](CO)[C@@H](O)C2)c(=O)[nH]c1=O,2,40,> 200,,2,> 100,0.2,> 100,
Nc1ncnc2c1ncn2[C@@H]1C[C@H](CO)[C@@H](O)C1,20,100,> 400,> 50,100,> 100,2,> 100,
Cc1cn(C2CC3OCC2C3CO)c(=O)[nH]c1=O (stereo unspecified),> 400,> 400,> 400,> 250,> 400,> 400,> 400,> 400,
Cc1cn([C@H]2CC[C@@H](CO)C2)c(=O)[nH]c1=O,> 400,> 400,> 400,> 250,> 400,> 400,> 400,> 400,
Cc1cn([C@H]2C[C@@H](CO)[C@H](O)C2)c(=O)[nH]c1=O,> 400,,> 400,> 160,> 400,> 100,> 400,> 400,
Cc1cn([C@H]2C[C@H](O)[C@@H](CO)[C@@H]2C)c(=O)[nH]c1=O,> 400,> 400,,> 250,> 400,> 400,> 400,> 400,> 400
Nc1nccc2c1ncn2[C@@H]1C[C@H](CO)[C@@H](O)[C@H]1O [3-DEAZAARISTEROMYCIN A],> 400,150,0.7,,0.7,2,> 400,0.7,
O=c1[nH]c(=O)n([C@H]2C[C@H](O)[C@@H](CO)O2)cc1/C=C/Br [BRIVUDINE],7,> 200,> 400,,20,> 400,0.02,> 400,
NC(=O)c1ncn([C@@H]2O[C@H](CO)[C@@H](O)[C@H]2O)n1 [RIBAVIRIN],> 400,> 400,300,,10,20,> 400,150,
Cc1cn([C@H]2C[C@H](N=[N+]=[N-])[C@@H](CO)O2)c(=O)[nH]c1=O [ZIDOVUDINE],,,,0.001,,,,,
